Test results reported in PMC5655428, “Discovery and pharmacological characterization of a new class of prolyl-tRNA synthetase inhibitor for anti-fibrosis therapy” (PLoS ONE, 2017).

System: human skin fibroblast
Assay: Transcriptome analysis (AmpliSeq) and gene signature analysis
Format: cell-based
Details: 300 nM, 24 h; >1.2-fold change, FDR < 0.05
Procedure: The Ion AmpliSeq Transcriptome Human Gene Expression Kit (ThermoFisher, Waltham, MA, USA) enables the simultaneous measurement of the expression levels of over 20,000 human genes in a single assay. AmpliSeq human-transcriptome libraries were constructed and sequenced by using the Ion Proton platform, according to the manufacturer’s instructions. Briefly, total RNA was extracted from human skin fibroblast treated with compounds for 24 h using the RNeasy Mini Kit. Reverse transcription was performed on 10 ng of the prepared total RNA samples using the AmpliSeq Whole Transcriptome primers with the included SuperScript® VILO^TM cDNA Synthesis kit (Life Technologies). Amplicons were ligated to adapters, and the resulting libraries were purified using Agencourt AMPure XP reagents (Beckman Coulter, Brea, CA, USA) and diluted to the concentration of 75 pM. Templated libraries were sequenced with the Ion Proton sequencer (ThermoFisher). AmpliSeq sequencing data were analyzed using the Ion Torrent Mapping Alignment Program. Identification of differentially expressed genes (DEGs) and comparative gene signature analysis were done in NextBio (http://nextbio.com). Gene expression data was taken by using our ATP-competitive PRS inhibitor analog (IC50: < 3.0 nM). […]

SMILES: O=C(CC1NCCCC1O)Cn1cnc2cc(Br)c(Cl)cc2c1=O (stereo not shown) [HF, Halofuginone, reference compound]
- number of genes with altered expression levels compared to vehicle-treated cells: 8229 genes
